# Assay results from publication PMC12040169 (PLOS Biology, 2025).
# Test: in vitro
# Settings: human, hela cells, % viability
row,Structure (SMILES),"viability at 28.5 h, 10 µM"
1,Cc1ccsc1CN(Cc1cncn1C)CC(C)O (stereo not drawn) [CBK283033],85.7%
2,CCOC(=O)c1cnn2c(O)cc(CN3CCCc4ccccc43)nc12 [CBK305694],118%
3,c1ccc(Oc2ccccc2-c2ccc(Nc3ccc(N4CCOCC4)cc3)nc2)cc1 [CBK036913],108%
4,O=C(NCC1CCCO1)c1sc2ccccc2c1Cl (stereo not drawn) [CBK058604],93.3%
5,Cc1cccc(NC(=O)COc2ccccc2CNc2ccc(Br)cc2)c1 [CBK266534],101%
6,Nc1nc(C2CC(N)C2)cc(N2CCC(Oc3ccccc3F)CC2)n1 (stereo not drawn) [CBK306909],85.5%
7,CCOc1ccccc1NC(=O)CSc1c[nH]nn1 [CBK270005],83.3%
8,CC(C)CCNC(=O)N1CCN(Cc2ccccc2)CC1 [CBK155657],87.2%
9,Cc1cc(S(=O)(=O)N(C)CCC#N)c(C)cc1Cl [CBK043787],111%
10,CC(=O)Nc1ccc(S(=O)(=O)Nc2cccc(C(=O)O)c2)cc1 [CBK050407],98.7%
11,CC(NC(=O)c1ncoc1-c1ccccc1)c1ccccn1 (stereo not drawn) [CBK283889],92.6%
12,Cc1ccc(S(=O)(=O)Nc2nc(C)c(C(=O)O)s2)cc1[N+](=O)[O-] [CBK045565],91.3%
13,Cc1cnn(-c2cc(N3CCC(n4cc(C5CC5)nn4)CC3)ncn2)c1 [CBK306721],96.2%
14,COc1cccc(CCOc2cncc(Cl)n2)c1 [CBK113556],87.3%
15,CC(C)(C)NC(=O)COc1ccc(CNc2ccc(C(=O)O)c(Cl)c2)cc1 [CBK287230],111%
16,NS(=O)(=O)c1ccc(NC(=O)CN2C(=O)S/C(=C\C=C\c3ccccc3)C2=O)cc1 [CBK264835],94.6%
17,COc1cccc(C(=O)NCC(c2cccs2)N2CCOCC2)c1 (stereo not drawn) [CBK305075],90.7%
18,COc1ccccc1C(=O)NCCCc1nc2ccccc2[nH]1 [CBK269837],87.1%
19,Cc1ccc(CNc2nc3c(c(=O)[nH]c(=O)n3C)n2CC(O)COC(C)C)cc1 (stereo not drawn) [CBK139849],87.3%
20,CCn1cc(CN(Cc2cccnc2)Cc2ccccc2OC)cn1 [CBK307224],84.2%
21,CC1c2ccsc2CCN1C(=O)c1ccnn1C(C)C (stereo not drawn) [CBK282079],89.2%
22,Cn1ccc(C(=O)N2CCOC(c3nc(C(C)(C)C)n[nH]3)C2)cc1=O (stereo not drawn) [CBK305201],106%

row,Structure (SMILES),"viability at 28.5 h, 10 µM"
1,CC(=O)Nc1cccc(-n2cnnc2SCC2CCOCC2)c1 [CBK306354],92%
2,Cc1ccc(C2Nc3ccccc3C3=NCCCN32)o1 (stereo not drawn) [CBK284488],103%
3,O=C(N/N=C/c1cccnc1)C1CCCN(S(=O)(=O)c2ccccc2)C1 (stereo not drawn) [CBK262712],91.5%
4,OCc1cccc(-c2cncc(NCCc3cccnc3)n2)c1 [CBK037946],98.8%
5,COc1ccc(C(=O)N2CCC3(CCCN(CCN(C)C)C3)C2)cc1OC (stereo not drawn) [CBK132873],95.6%
6,O=C(Nc1ccccn1)Nc1ccccn1 [CBK015518],95.5%
7,O=C(O)CCCC(=O)NCc1cccnc1 [CBK261708],106%
8,Cn1cnc2ccc(NC(=O)CC3CCN(C(=O)CC4CCCCC4)CC3)cc21 [CBK285961],84.1%
9,CC(C)NC(=O)CN1CCC(N(C)Cc2cccc(C(F)(F)F)c2)CC1 [CBK305429],95%
10,O=C(COc1ccc(Cl)cc1)NCCc1ccc(S(=O)(=O)NC(=O)NC2CCCCC2)cc1 [CBK013261],92.4%
11,Cc1ccc(/N=N/N(CC(O)C(O)C(O)CO)c2ccc(C)c(C)c2)cc1C (stereo not drawn) [CBK262705],90%
12,O=C(NCN1CCN(c2ccc([N+](=O)[O-])cc2)CC1)c1cccnc1 [CBK264909],106%
13,Cc1ccc(N2CC(c3nc(-c4ccncc4)no3)CC2=O)cc1Cl (stereo not drawn) [CBK288582],109%
14,CC1(OCCCO)SC(NC2CCCCCC2)=NC1=O (stereo not drawn) [CBK107927],91.5%
15,O=C(O)C1CCN(C(=O)CCC(=O)N2CCN(c3ccccc3)CC2)CC1 [CBK286896],93.9%
16,OCCCNc1nccnc1-c1cccc(F)c1 [CBK088976],98.5%
17,Cc1cc(NS(=O)(=O)c2ccc(NC(=S)NCC3CCCO3)cc2)no1 (stereo not drawn) [CBK268160],101%
18,O=C(CCNC(=O)c1ccc(Br)o1)NCc1ccccc1Cl [CBK294454],81.5%
19,Cc1cc(=O)n2c(C(=O)Nc3cccc(C(=O)O)c3)c(C(=O)Nc3cccc(C)c3C)sc2n1 [CBK297545],101%
20,CC(=O)Oc1cc2c(c(OC(C)=O)n1)C(C)NC2=O (stereo not drawn) [CBK012390],94.9%
21,CNC(=O)CCc1ccccc1NC(=O)NCc1cnc(SC)n1C [CBK307507],101%
22,CN1CCCN(CC(CC(=O)NCc2ccccc2)C(=O)O)CC1 (stereo not drawn) [CBK286791],86.6%

row,Structure (SMILES),"viability at 28.5 h, 10 µM"
1,COc1ccc(OCCN2CCC3(CC2)CN(S(C)(=O)=O)c2ccccc23)cc1 [CBK126681],95.5%
2,Nc1ncc(-c2cccc(O)c2)nc1-c1ccc(CCC(=O)O)cc1 [CBK064135],103%
3,Cc1nn(C)cc1C(C)NC(=O)c1ccc2c(c1)ncn2C (stereo not drawn) [CBK281732],103%
4,CCN(CCO)c1ccc(Nc2cc(-c3ccsc3)ncn2)cc1 [CBK091000],89.5%
5,O=C(c1ccco1)N1CCC[C@H]1[C@H](O)c1nccs1 [CBK284286],98.5%
6,C/C(=N\O)c1oc2ccccc2c(=O)c1O [CBK010642],98.6%
7,CCn1c2ccccc2c2cc(Nc3cc(-c4ccc(OC(F)(F)F)cc4)ncn3)ccc21 [CBK090842],87.3%
8,CN1CCC(N(C)C(=O)Nc2ccc(C(N)=O)cc2)C1 (stereo not drawn) [CBK156015],93.8%
9,Cc1noc(C)c1S(=O)(=O)Nc1ccccc1C(=O)O [CBK042371],89.8%
10,CCCc1nnc(C(=O)NC(=O)NCCCN(C)C)s1 [CBK018853],84.3%
11,CN1CCN(NC(=O)COc2ccc(Br)cc2Cl)CC1 [CBK268174],92.6%
12,CCC(C)NC(=O)c1ccc2nccnc2c1 (stereo not drawn) [CBK268921],89.4%
13,COc1ccc(NC(=O)CC2SC(=N)NC2=O)c([N+](=O)[O-])c1 (stereo not drawn) [CBK265334],95.9%
14,COc1cccc(Sc2cc(N3CCCC3)ncn2)c1 [CBK089533],110%
15,CCn1cncc1CN1CC2CCCC(O)(c3ccc(C)cc3)C2C1 (stereo not drawn) [CBK284374],90%
16,COc1cccc2ncn(CCCc3c(C)n[nH]c3C)c(=O)c12 [CBK307153],82.9%
17,O=C(c1ccoc1)N1CCC2(CCCN(Cc3ccc(OC(F)(F)F)cc3)C2)C1 (stereo not drawn) [CBK132801],114%
18,CCc1ccc(OCC(=O)O/N=C(\N)c2ccncc2)c(Br)c1 [CBK265994],86.6%
19,O=C(c1cccc(C(=O)N(Cc2ccccc2)c2ccccn2)c1)N(Cc1ccccc1)c1ccccn1 [CBK091794],111%
20,Cn1cc(C(=O)NCC(c2ccccc2F)N2CCCC2)ccc1=O (stereo not drawn) [CBK281950],83.9%
21,C(=C\C1Nc2ccccc2-c2nnc(SCc3ccccc3)nc2O1)/c1ccccc1 (stereo not drawn) [CBK264447],112%
22,CC(C)c1noc(-c2ncn3c2c(=O)n(C(C)C)c2cc(F)ccc23)n1 [CBK016659],102%

row,Structure (SMILES),"viability at 28.5 h, 10 µM"
1,O=C(NC1Cc2ccccc2C1)c1nc2ccccc2[nH]1 [CBK200361],102%
2,Cc1ccc(C(=O)NCCc2ccc(S(N)(=O)=O)cc2)c(N2CCN(C(=O)c3ccco3)CC2)n1 [CBK076345],89%
3,CC(=O)Nc1nc(CN2CCOC(c3ccc(F)cc3)C2)cs1 (stereo not drawn) [CBK305591],98.5%
4,O=C(O)CN(c1ccc([N+](=O)[O-])cc1)S(=O)(=O)c1ccccc1 [CBK263782],92.7%
5,COc1cc(CN2CCN(C/C=C/c3ccccc3)CC2)cc(Br)c1O [CBK261582],101%
6,CONc1nc(/N=C/N(C)C)nc2c1ncn2C1CC(O)C(CO)O1 (stereo not drawn) [CBK201335],92.7%
7,O=C(COc1ccccc1)Nc1ccc(N2CCOCC2)c2nonc12 [CBK268149],87.9%
8,O=C1CC(c2ccc(Br)cc2)Nc2ccc3ccccc3c21 (stereo not drawn) [CBK094798],93.4%
9,CCN(CC)c1ccc(/C=N/NC(=O)CC2=NNC(=O)C2)cc1 [CBK020059],91.8%
10,COc1nccnc1N1CCN(CC(=O)Nc2c(C)cccc2C)CC1 [CBK084220],89.1%
11,COc1ccc(-c2ncc(Oc3cccc(NC(C)=O)c3)nc2N)c(OC)c1 [CBK145087],113%
12,Cc1cc(N2CCC(N(C)C)CC2)nc(N)n1 [CBK167267],106%
13,CC(CC(=O)O)CC(=O)N1CCCC1c1nc(-c2ccc(F)cc2)c2ccccn12 (stereo not drawn) [CBK046626],99.4%
14,N#Cc1c(SCC(=O)O)nc(-c2cccs2)c2c1CCCC2 [CBK269858],103%
15,COCC(O)CN(C)c1nc(-c2ccncc2)nc2ccccc12 (stereo not drawn) [CBK305170],78.7%
16,Cn1ccnc1C(NC(=O)N1CCOc2ccc(Cl)cc2C1)C1CC1 (stereo not drawn) [CBK307212],91%
17,Cn1ccnc1C1(O)CCN(C(=O)CCc2ccccc2)CC1 [CBK283542],92%
18,O=C(c1ccc(-c2nccnc2NCc2ccco2)cc1)N1CCOCC1 [CBK036920],98.6%
19,Cc1ccc(C2C=C(c3ccccc3)Nc3nc(N4C(=O)CCC4=O)nn32)cc1 (stereo not drawn) [CBK266197],98.6%
20,O=C1NC(=O)C(CC(=O)N2CCN(Cc3nc4ccccc4s3)CC2)S1 (stereo not drawn) [CBK295654],98.3%
21,Nc1ncnc(NNC(=O)CNC(=O)c2ccccc2C(F)(F)F)c1[N+](=O)[O-] [CBK267186],94.1%
22,O=C(CN1CCC(O)(c2ccccc2F)CC1)N1CCCCC1 [CBK281938],103%

# Same assay, conditions: human, hela cells, % viability, bulk resorufin, single well
row,Structure (SMILES),"viability at 28.5 h, 10 µM"
1,Cc1cccc(N2C(=O)NC(=O)C(CCc3ccncc3)(CCc3ccncc3)C2=O)c1C [CBK268705],93.9%
2,O=C1NC(=O)C(CC(=O)N2CCC3(CC2)OCc2cc(-c4ccccc4)ccc2O3)N1 (stereo not drawn) [CBK061111],85.6%
